# Experimental data from ChEMBL document CHEMBL4837230, “Thiophene-2-carboxamide derivatives of anthraquinone: A new potent antitumor chemotype” (Eur J Med Chem, 2021).
# Legend:
# K562 [1] = experiment: Induction of cell cycle arrest in human K562 cells assessed as increase in accumulation at sub-G1 phase at 2.5 uM by flow cytometric analysis (reference value: 16.1%); type: functional
# K562 [2] = experiment: Induction of apoptosis in human K562 cells assessed as early apoptotic cells after 3 hrs by Annexin V-APC/PI double staining based flow cytometric analysis (reference value: 0.1%); type: functional
compound,measurement,setting,value
N[C@H]1CCN(C(=O)c2cc3c(O)c4c(c(O)c3s2)C(=O)c2ccccc2C4=O)C1,Activity,K562 [1],14.9%
same,Activity,K562 [2],0.6%
